According to patent publication US11000033B2, “Ketone or oxime compound, and herbicide” (NISSAN CHEMICAL CORPORATION, priority 2014, dated 2021):

Tests used:
Format in all cases: in vivo
Setaria viridis = test: Test Example 4: herbicidal effect by soil treatment (symbol G); conditions: application herbicide amount 320 g/ha
How it was run: (§1)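 Seeds were sown in sterilized diluvial soil, covered with about 1.5 cm of soil, and the soil surface was sprayed with a water-diluted emulsion of the compound at a predetermined rate. Plants grew in a greenhouse at 25° C. to 30° C.; effects were scored visually 3 weeks after application.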

soybean = test: Test Example 5: effect on crop by foliage application, plastic box (symbol d); conditions: 320 g/ha, 3 weeks after application
How it was run: (§2)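 Seeds were sown in spots in sterilized diluvial soil held in a plastic box 21 cm × 13 cm × 7 cm deep, covered with about 1.5 cm of soil, and grown in a greenhouse at 25° C. to 30° C.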

Apera spica-venti = test: Test Example 5: herbicidal effect by foliage application, plastic box (symbol L); conditions: 320 g/ha, 3 weeks after application
How it was run: (§3)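 Effect is rated 3 weeks after a foliar spray of water-diluted emulsion concentrate at a predetermined herbicide amount. Plants had grown 14 days in a 25° C. to 30° C. greenhouse from seed in sterilized diluvial soil.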

[1] = system: Echinochloa crus-galli var. crus-galli; test: Test Example 5: herbicidal effect by foliage application, plastic box (symbol H); conditions: 320 g/ha, 3 weeks after application
How it was run: as §3

Abutilon theophrasti = test: Test Example 5: herbicidal effect by foliage application, plastic box (symbol M); conditions: 320 g/ha, 3 weeks after application
How it was run: as §3

Monochoria vaginalis [2] = test: Test Example 2: herbicidal activity, application during weed generation in submerged conditions (symbol C); conditions: Table 23; application herbicide amount 320 g/ha; grade 0-5 by criteria of Test Example 1
How it was run: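 Alluvial soil in pots was flooded to a 4 cm water depth and sown with a mix of the three weed species, then grown in a greenhouse at 25° C. to 30° C. At the one- to two-leaf stage, an emulsifiable formulation diluted in water to a set dose was applied to the water surface. Effects were scored visually 3 weeks later.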

[3] = system: directly sowed rice plant; test: Test Example 3: effect on crop by foliage application, Wagner pot (symbol b); conditions: application herbicide amount 320 g/ha
How it was run: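 Plants are raised from seed in flooded paddy conditions: water stands 0.1–0.5 cm over alluvial soil, and the pot is kept in a greenhouse at 25–30 °C. Species sown are barnyardgrass (E. crus-galli var. crus-galli), Leptochloa chinensis, Cyperus difformis and rice.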

Monochoria vaginalis [4] = test: Test Example 1: herbicidal activity, application before weed generation in submerged conditions (symbol C); conditions: application herbicide amount 320 g/ha
How it was run: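 Paddy pre-emergence test. Formulated emulsion, water-diluted to a predetermined rate, is applied to floodwater on sowing day; rice transplanted at 2.5 leaves. Effect read at 3 weeks on a 0–5 herbicidal-ratio scale.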

Avena fatua = test: Test Example 4: herbicidal effect by soil treatment (symbol I); conditions: application herbicide amount 320 g/ha
How it was run: as §1

beet = test: Test Example 4: effect on crop by soil treatment (symbol f); conditions: application herbicide amount 320 g/ha
How it was run: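 Greenhouse culture at 25° C. to 30° C. followed sowing of seed in spots on sterilized diluvial soil with a soil cover close to 1.5 cm thick.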

corn = test: Test Example 5: effect on crop by foliage application, plastic box (symbol c); conditions: 320 g/ha, 3 weeks after application
How it was run: as §2

rapeseed = test: Test Example 5: effect on crop by foliage application, plastic box (symbol g); conditions: 320 g/ha, 3 weeks after application
How it was run: as §2

Compound | G: Setaria viridis, herbicidal effect grade (Setaria viridis) | d: soybean, effect on crop grade (soybean) | L: Apera spica-venti, herbicidal effect grade (Apera spica-venti) | H: Echinochloa crus-galli var. crus-galli, herbicidal effect grade [1] | M: Abutilon theophrasti, herbicidal effect grade (Abutilon theophrasti) | Herbicidal effect grade, C: Monochoria vaginalis (Monochoria vaginalis [2]) | effect on crop b (directly sowed rice plant), grade 0-5 [3] | Herbicidal effect grade, C: Monochoria vaginalis (Monochoria vaginalis [4]) | I: Avena fatua, herbicidal effect grade (Avena fatua) | f: beet, effect on crop grade (beet) | c: corn, effect on crop grade (corn) | g: rapeseed, effect on crop grade (rapeseed) | G (Setaria viridis) herbicidal effect grade (Setaria viridis) | I (Avena fatua) herbicidal effect grade (Avena fatua)
CCC(CCC1CC(O)=C(c2c(C)cc(C)cc2C)C1=O)=NOC (mixture of isomers) [4-001] | 0 (Herbicidal ratio of 5% or lower (almost no effect)) | 0 (Herbicidal ratio of 5% or lower (almost no effect)) | 2 (Herbicidal ratio of 20% or higher and lower than 40%) | 2 (Herbicidal ratio of 20% or higher and lower than 40%) | 0 (Herbicidal ratio of 5% or lower (almost no effect)) | 0 (Herbicidal ratio of 5% or lower (almost no effect)) | 4 (Herbicidal ratio of 70% or higher and lower than 90%) | 0 (Herbicidal ratio of 5% or lower (almost no effect)) | 0 (Herbicidal ratio of 5% or lower (almost no effect)) | 0 (Herbicidal ratio of 5% or lower (almost no effect)) | 1 (Herbicidal ratio of 5% or higher and lower than 20%) | – | – | –
CON=C(C)CC1CC(O)=C(c2c(C)cc(-n3cc(Cl)cn3)cc2C)C1=O (mixture of isomers) [6-004] | 5 (Herbicidal ratio of 90% or more (almost completely withered)) | 1 (Herbicidal ratio of 5% or higher and lower than 20%) | 5 (Herbicidal ratio of 90% or more (almost completely withered)) | 5 (Herbicidal ratio of 90% or more (almost completely withered)) | 3 (Herbicidal ratio of 40% or higher and lower than 70%) | – | 5 (Herbicidal ratio of 90% or more (almost completely withered)) | 2 (Herbicidal ratio of 20% or higher and lower than 40%) | 4 (Herbicidal ratio of 70% or higher and lower than 90%) | – | 4 (Herbicidal ratio of 70% or higher and lower than 90%) | 4 (Herbicidal ratio of 70% or higher and lower than 90%) | – | –
CC#Cc1cc(C)c(C2=C(O)CC(CC(C)=NOC)C2=O)c(C)c1 (mixture of isomers) [6-009] | 5 (Herbicidal ratio of 90% or more (almost completely withered)) | 3 (Herbicidal ratio of 40% or higher and lower than 70%) | 5 (Herbicidal ratio of 90% or more (almost completely withered)) | 5 (Herbicidal ratio of 90% or more (almost completely withered)) | 3 (Herbicidal ratio of 40% or higher and lower than 70%) | 0 (Herbicidal ratio of 5% or lower (almost no effect)) | 5 (Herbicidal ratio of 90% or more (almost completely withered)) | 0 (Herbicidal ratio of 5% or lower (almost no effect)) | 4 (Herbicidal ratio of 70% or higher and lower than 90%) | 2 (Herbicidal ratio of 20% or higher and lower than 40%) | 5 (Herbicidal ratio of 90% or more (almost completely withered)) | 4 (Herbicidal ratio of 70% or higher and lower than 90%) | – | –
C#CCOC1=C(c2c(C)cc(C)cc2C)C(=O)C(CC(C)=NOC)C1 (centres unmarked) [1-008] | – | 2 (Herbicidal ratio of 20% or higher and lower than 40%) | 4 (Herbicidal ratio of 70% or higher and lower than 90%) | 4 (Herbicidal ratio of 70% or higher and lower than 90%) | 2 (Herbicidal ratio of 20% or higher and lower than 40%) | 0 (Herbicidal ratio of 5% or lower (almost no effect)) | 5 (Herbicidal ratio of 90% or more (almost completely withered)) | 0 (Herbicidal ratio of 5% or lower (almost no effect)) | – | – | 0 (Herbicidal ratio of 5% or lower (almost no effect)) | 3 (Herbicidal ratio of 40% or higher and lower than 70%) | 4 (Herbicidal ratio of 70% or higher and lower than 90%) | 0 (Herbicidal ratio of 5% or lower (almost no effect))
CON=C(C)CC1CC(OC(=O)OC)=C(c2c(C)cc(C)cc2C)C1=O (centres unmarked) [1-014] | – | 5 (Herbicidal ratio of 90% or more (almost completely withered)) | 5 (Herbicidal ratio of 90% or more (almost completely withered)) | 5 (Herbicidal ratio of 90% or more (almost completely withered)) | 5 (Herbicidal ratio of 90% or more (almost completely withered)) | 3 (Herbicidal ratio of 40% or higher and lower than 70%) | 5 (Herbicidal ratio of 90% or more (almost completely withered)) | 2 (Herbicidal ratio of 20% or higher and lower than 40%) | – | – | 5 (Herbicidal ratio of 90% or more (almost completely withered)) | 4 (Herbicidal ratio of 70% or higher and lower than 90%) | 3 (Herbicidal ratio of 40% or higher and lower than 70%) | 5 (Herbicidal ratio of 90% or more (almost completely withered))
Cc1cc(C)c(C2=C(O)CC(CC(=O)C(C)C)C2=O)c(C)c1 (centres unmarked) [2-016] | 5 (Herbicidal ratio of 90% or more (almost completely withered)) | 3 (Herbicidal ratio of 40% or higher and lower than 70%) | 4 (Herbicidal ratio of 70% or higher and lower than 90%) | 5 (Herbicidal ratio of 90% or more (almost completely withered)) | 4 (Herbicidal ratio of 70% or higher and lower than 90%) | 0 (Herbicidal ratio of 5% or lower (almost no effect)) | 5 (Herbicidal ratio of 90% or more (almost completely withered)) | 0 (Herbicidal ratio of 5% or lower (almost no effect)) | 0 (Herbicidal ratio of 5% or lower (almost no effect)) | – | 4 (Herbicidal ratio of 70% or higher and lower than 90%) | 4 (Herbicidal ratio of 70% or higher and lower than 90%) | – | –
CCC(=O)CCC1CC(O)=C(c2c(C)cc(C)cc2C)C1=O (centres unmarked) [5-001] | 0 (Herbicidal ratio of 5% or lower (almost no effect)) | 0 (Herbicidal ratio of 5% or lower (almost no effect)) | 4 (Herbicidal ratio of 70% or higher and lower than 90%) | 3 (Herbicidal ratio of 40% or higher and lower than 70%) | 0 (Herbicidal ratio of 5% or lower (almost no effect)) | 0 (Herbicidal ratio of 5% or lower (almost no effect)) | 5 (Herbicidal ratio of 90% or more (almost completely withered)) | 0 (Herbicidal ratio of 5% or lower (almost no effect)) | 0 (Herbicidal ratio of 5% or lower (almost no effect)) | – | 2 (Herbicidal ratio of 20% or higher and lower than 40%) | 0 (Herbicidal ratio of 5% or lower (almost no effect)) | – | –
